Assay results from paper PMC10111413 (ACS Infectious Diseases, 2023).
In brackets after ≈: the same amount, converted by molar mass. Where a SMILES comes first, the peptide text is derived from it. Bridges are numbered along the chain shown (N, C = ends). [ ]: non-standard residue; d: D form. The star is where a group is joined. ξ: configuration not given here. Hexanoyl(4ξ-Me) = CCC(C)CCC(=O)*; dOrn = NCCC[C@@H](N)C(=O)O; Orn = NCCC[C@H](N)C(=O)O; Dap = NC[C@H](N)C(=O)O

Key:
A. baumannii BV94 = assay type: cell-based; settings: BV94, 18 h
Method: (§1) VIII. Antimicrobial testing
(§2) Table S2. Minimum inhibitory concentrations (MICs) determined against panel of previously characterized colistin-resistant A. baumannii clinical isolates5
(§3) Strain Relacidine A (3a) Relacidine B (4a) Relacidamide (5) Colistin […]
(§4) aMIC values given in µg/ml.
(§5) All minimum inhibitory concentrations were determined according to Clinical and Standards Laboratory Institute (CLSI) guidelines. Blood agar plates were inoculated from glycerol stocks of the different A. baumannii strains used and then incubated for 16 h at 37 °C . Individually grown colonies were subsequently used to inoculate 5 mL aliquots of TSB that were then incubated at 37 °C. In parallel, the lipopeptide antibiotics DMSO stocks to be assessed were serially diluted with cation-adjusted MHB in polypropylene 96-well plates (50 µL in each well). Colistin sulfate stocks were dissolved in water before being diluted with cation-adjusted MHB. The A. baumannii inoculated TSB aliquots were incubated until an OD600 of around 0.5 was reached. The bacterial suspensions were then diluted with cation-adjusted MHB (2 x 10^5 CFU mL-1) and added to the microplates containing the test compounds (50 µL to each well). The well-plates were sealed with an adhesive membrane and after 18 h of incubation at 37 °C visually inspected for bacterial growth. MIC values reported are based on three technical replicates and defined as the lowest concentration of the compound that prevented visible

A. baumannii NCTC 13304 = assay type: cell-based; settings: NCTC 13304, 18 h
Method: as §1, §2, §3, §4, §5

A. baumannii BV95 = assay type: cell-based; settings: BV95, 18 h
Method: as §1, §2, §3, §4, §5

A. baumannii LAC-4 = assay type: cell-based; settings: LAC-4, 18 h
Method: as §1, §2, §3, §4, §5

A. baumannii BV173 = assay type: cell-based; settings: BV173, 18 h
Method: as §1, §2, §3, §4, §5

A. baumannii NCTC 13420 = assay type: cell-based; settings: NCTC 13420, 18 h
Method: as §1, §2, §3, §4, §5

A. baumannii BV172 = assay type: cell-based; settings: BV172, 18 h
Method: as §1, §2, §3, §4, §5

A. baumannii ATCC 17978 = assay type: cell-based; settings: ATCC 17978, 18 h
Method: as §1, §2, §3, §4, §5

A. baumannii HUMC1 = assay type: cell-based; settings: HUMC1, 18 h
Method: as §1, §2, §3, §4, §5

K. pneumoniae ATCC 13883 = assay type: cell-based; settings: ATCC 13883, 18 h
Method: (§6) The antibacterial activities of relacidine A (3a) and B (4a), along with diastereomers 3b and 4b–d and relacidamide (5), were assessed using a standard microbroth dilution assay to establish minimum inhibitory concentration (MIC) values against a panel of Gram-negative bacteria (Table 1). The MIC values measured for synthetic relacidine A (3a) and B (4a) agree well with those previously published.[9] […] Relacidine A (3a) and B (4a), as well as relacidamide (5), were further tested against a panel of colistin-resistant A. baumannii clinical isolates, which confirmed their ability to prevent the growth of colistin-resistant isolates (Supplemental Table S2). […] Also of interest was the finding that while relacidine B (4a) induced <1% hemolysis, a substitution of either the L-Ala or L-Ser to D-Ala or D-Ser increased hemolytic activity to 8–12%. […] The greater hydrolytic stability of relacidine B would appear to be attributable to the increased steric bulk of the Ala side chain next to the ester linkage (compared with the methylene of Gly in relacidine A), which may hinder the nucleophilic attack of water at the ester carbonyl.
(§7) Colistin sulfate was purchased from Activate Scientific. Kanamycin monosulfate was purchased from MP Biomedicals. E. coli ATCC 25922, S. aureus USA300 (ATCC BAA1717), and K. pneumoniae ATCC 13883 belong to the American Type Culture Collection (ATCC). P. aeruginosa PAO1 was kindly provided by L.H.C. Quarles Van Ufford of Utrecht University, Utrecht, The Netherlands. E. coli ATCC 25922 MCR-1 was transfected in-house using the pGDP2-MCR1 plasmid kindly provided by Yong-Xin Li of The University of Hong Kong, Hong Kong, China. Sheep blood agar plates (ref. PB5039A) were purchased from Thermo Scientific. Tryptic soy broth (ref. 02-200-500) was purchased from Scharlab. Mueller-Hinton broth (ref. X927.1) was purchased from Carl Roth. Polypropylene 96-wells plates (ref. 3879) were purchased from Corning.
(§8) MICs were determined according to Clinical and Standards Laboratory Institute (CLSI) guidelines. Blood agar plates were inoculated with glycerol stocks of E. coli ATCC 25922, K. pneumoniae ATCC 13883, P. aeruginosa PAO1, and S. aureus USA300. The inoculated agar plates were then incubated for 16 h at 37 °C. Individually grown colonies were subsequently used to inoculate 5 mL aliquots of tryptic soy broth (TSB) that were then incubated at 37 °C with shaking at 220 rpm. E. coli 25922 MCR-1 glycerol stock was used to inoculate 5 mL of TSB supplemented with kanamycin that was then incubated for 16 h at 37 °C with shaking at 220 rpm. The next day, the culture was diluted 100-fold in TSB supplemented with kanamycin and incubated at 37 °C with shaking at 220 rpm. In parallel, the lipopeptide antibiotic DMSO stocks to be assessed were serially diluted with Mueller Hinton broth (MHB) in polypropylene 96-well plates (50 μL in each well). Colistin sulfate stocks were dissolved in water before being diluted with MHB. Aliquots of the inoculated TSB were incubated until an OD600 of around 0.5 was reached. The bacterial suspensions were then diluted with MHB (2 × 10^5 cfu mL^–1) and added to the microplates containing the test compounds (50 μL to each well). The well plates were sealed with an adhesive membrane, and after 18 h of incubation at 37 °C with shaking at 600 rpm, the wells were visually inspected for bacterial growth. MIC values reported are based on three technical replicates and defined as the lowest concentration of the compound that prevented visible growth of bacteria.

E. coli ATCC 25922 mcr-1 = assay type: cell-based; settings: CLSI microbroth dilution, Mueller Hinton broth, 18 h at 37 °C, visual read-out, three technical replicates; mcr-1 colistin resistance plasmid
Method: as §6, §7, §8

E. coli ATCC 25922 = assay type: cell-based; settings: ATCC 25922, 18 h
Method: as §6, §7, §8

S. aureus USA300 = assay type: cell-based; settings: USA300, 18 h
Method: as §6, §7, §8

P. aeruginosa PAO1 = assay type: cell-based; settings: PAO1, 18 h
Method: as §6, §7, §8

G. mellonella larvae = settings: in vivo
Description: Given the promising in vitro activity of relacidamide (5), along with its high serum stability, low hemolytic activity, and ease of synthesis, we further evaluated its efficacy in an established in vivo infection model using G. mellonella larvae. The G. mellonella infection model has gained popularity in recent years and provides a convenient method to assess the in vivo effectiveness and toxicity of novel antibiotics.[15],[16] […] The larvae were first injected with either vehicle (PBS) or A. baumannii BV94 suspension in the right second proleg. The moth larvae were then injected in the left second proleg with either PBS (untreated), colistin at 100 mg/kg or 200 mg/kg, or relacidamide (5) at 100 mg/kg or 200 mg/kg. The G. mellonella larvae were then incubated for 72 h, and their survival was assessed twice per day. Relacidamide (5) induced 50% survival after 72 h at 100 mg/kg and 70% survival at 200 mg/kg, whereas none of the larvae treated with colistin survived, and only 10% of the untreated larvae survived after 72 h.

[1] = human serum (obtained from Sigma Aldrich, product number: H4522); settings: 37 °C, up to 24 h

| Compound | MIC A. baumannii BV94 (A. baumannii BV94) | MIC A. baumannii NCTC 13304 (A. baumannii NCTC 13304) | MIC A. baumannii BV95 (A. baumannii BV95) | MIC A. baumannii LAC-4 (A. baumannii LAC-4) | MIC A. baumannii BV173 (A. baumannii BV173) | MIC A. baumannii NCTC 13420 (A. baumannii NCTC 13420) | MIC A. baumannii BV172 (A. baumannii BV172) | MIC A. baumannii ATCC 17978 (A. baumannii ATCC 17978) | MIC A. baumannii HUMC1 (A. baumannii HUMC1) | MIC K. pneumoniae ATCC 13883 (K. pneumoniae ATCC 13883) | MIC E. coli ATCC 25922 mcr-1 (E. coli ATCC 25922 mcr-1) | MIC E. coli ATCC 25922 (E. coli ATCC 25922) | MIC S. aureus USA300 (S. aureus USA300) | MIC P. aeruginosa PAO1 (P. aeruginosa PAO1) | tolerability in G. mellonella larvae (G. mellonella larvae) | not cleaved [1] |
| --- | --- | --- | --- | --- | --- | --- | --- | --- | --- | --- | --- | --- | --- | --- | --- | --- |
| CCC(C)CCC(=O)N[C@H](CO)C(=O)N[C@H](Cc1ccc(O)cc1)C(=O)N[C@H](Cc1c[nH]c2ccccc12)C(=O)N[C@H](CCCN)C(=O)N[C@@H](CCCN)C(=O)NCC(=O)N[C@H](CCCN)C(=O)N[C@@H](Cc1c[nH]c2ccccc12)C(=O)N[C@H]1CNC(=O)CNC(=O)[C@H](CO)NC(=O)CNC(=O)[C@H]([C@@H](C)CC)NC1=O (stereo partly shown) [compound 5, Relacidamide] ({Hexanoyl(4ξ-Me)}-[dS][dY][dW][dOrn][Orn]G[dOrn]W[Dap]IGSG; lactam 9-C) | 8 µg/mL (≈ 5.21 µM) | 4 µg/mL (≈ 2.61 µM) | 8 µg/mL (≈ 5.21 µM) | 8 µg/mL (≈ 5.21 µM) | 16 µg/mL (≈ 10.4 µM) | 16 µg/mL (≈ 10.4 µM) | 16 µg/mL (≈ 10.4 µM) | 4 µg/mL (≈ 2.61 µM) | 8 µg/mL (≈ 5.21 µM) | 4 µg/mL (≈ 2.61 µM) | 2 to 4 µg/mL | 2 to 4 µg/mL | >32 µg/mL | 8 µg/mL (≈ 5.21 µM) | well tolerated up to the highest tested dose |  |
| D-Ser1 D-Tyr2 D-Trp3 D-Orn4 Orn5 Gly6 D-Orn7 Trp8 Thr9 Ile10 Gly11 Ser12 Ala13 Lipid |  |  |  |  |  |  |  |  |  |  |  |  |  |  |  | highly resistant to degradation in human serum even after 24 h of incubation |
